Patent publication US4185116A, “L- and DL- Phenylglycines to treat diseases or conditions attributable to reduced carbohydrate metabolism” (priority 1976, dated 1980)
Structures can show the parent of a compound that is named as a salt.

Columns and labels:
[1] = system: pyruvate dehydrogenase enzyme; assay: Proportion of active pyruvate dehydrogenase (PDHa/PDHt) in hearts of fat-fed rats after treatment in vivo; parameters: species or system rat; conditions: heart; for PDHa/PDHt Ratio, Compound: 0.6 millimoles/kg.
Protocol: The total amount of the enzyme present (PDHt) and the amount which is present in the active form (PDHa) are assessed by a method similar to that described by Taylor et al., Jour. […] The fat-feeding process is found to depress the ratio PDHa/PDHt from a normal value of about 0.7 to a value in the range from 0.05 to 0.2. Treatment of fat-fed rats with L(+)-2-(4-hydroxyphenyl)glycine, either parenterally or orally, increases this ratio in a dose-dependent manner, the threshold doses for this effect being 0.05 millimole/kg. by intravenous injection and in the range 0.1 to 0.2 millimole/kg. by subcutaneous injection or by oral administration. The ratio is increased to a value in the range 0.8-1.0 (i.e., above that for rats on normal diet) by doses of 0.6 millimole/kg. and above.
The increase in the PDHa/PDHt ratio effected by other compounds of formula (I) at a dose level of 0.6 millimoles/kg. is shown in the following Table: […]

[2] = system: pyruvate oxidation by diaphragm tissue from fat-fed rats; assay: Pyruvate oxidation by diaphragm tissue from fat-fed rats (14C-pyruvate into CO2, in vitro); assay type: cell-based, rat; conditions: for activation at 500 µM: concentration of 0.5 mM, read-out: % Stimulation (of pyruvate oxidation)
Protocol: The compounds of formula (I) were tested for their ability to increase pyruvate oxidation as follows:
Diaphragm tissue is obtained from rats fed on a high fat diet similar to "Diet B" described by Zaragoza and Felber, Horm, Metab. Res., 2, 323 (1970). Pyruvate oxidation by such tissue is assessed by measurement of the rate of incorporation of carbon-14 from carbon-14-labelled pyruvate into carbon dioxide in vitro, as described by Bringolf, Eur. Jour. Biochem., 26, 360 (1972). The rate of pyruvate oxidation is depressed by 50-75% compared with that by diaphragm tissue from rats fed on a normal diet. […] The threshold concentration for such stimulation is about 0.25 millimolar and maximum stimulation of 170% is achieved at concentrations of 4 millimolar and above.

[3] = system: glucose oxidation by isolated hearts from starved rats; assay: Glucose oxidation by isolated perfused hearts from starved rats (14C-glucose into CO2); assay type: cell-based; conditions: isolated starved-rat heart
Protocol: The rate of glucose oxidation by isolated hearts from starved rats is measured in a recirculating oxygenated perfusion system, by measuring the rate of incorporation of carbon-14 from carbon-14-labelled glucose into carbon dioxide using a method similar to those described by Morgan et al., Jour. […] The perfusate contains glucose, palmitate, insulin and bovine serum albumen.

[4] = system: heart of anesthetized beagle dogs; assay: Myocardial blood flow and metabolism in fasted, closed-chest, anesthetized, electrically paced beagle dogs; assay type: in vivo, dog
Protocol: The ability of compounds of formula (I) to reduce oxygen demand and affect the relative utilization of carbohydrate and lipid metabolites in the heart has been assessed by measuring the effect of the compounds on myocardial blood flow and metabolism in fasted, closed-chest, anesthetized beagle dogs, with cardiac catherization to enable simultaneous sampling of coronary sinus and arterial blood to be carried out. Coronary sinus blood flow is measured by the hydrogen gas clearance technique described by Aukland et al., Circulation Res., 14, 164 (1964). The heart is paced electrically at 155 beats/min. and recordings of hemodynamic parameters (blood pressure, left ventricular pressure and the first derivative of the latter) are made continuously. Control measurements of coronary blood flow are made and samples of blood taken at 40 minute intervals, both in an untreated animal and in the same animal dosed with an infusion of isoprenaline ([…].), which both stimulates cardiac contraction and increases plasma free fatty acid levels. The compound of formula (I) is then administered intravenously and measurements are made and samples taken again, 40 minutes and 90 minutes later. The blood samples from the artery and coronary sinus are analyzed for oxyhemoglobin, pyruvate and free fatty acid (FFA) content, differences between those of the arterial and coronary sinus blood, when multiplied by coronary blood flow, being a measure of oxygen consumption, pyruvate uptake and FFA uptake by the myocardium respectively.

[5] = system: rats in which diabetes has been induced by treatment with streptozotocin; assay: Blood glucose levels in streptozotocin-diabetic rats; assay type: in vivo, rat
Protocol: The ability of compounds of formula (I) to decrease blood glucose levels has been assessed by measuring their effect on blood glucose levels in rats in which diabetes has been induced by treatment with streptozotocin (85 mg/kg.). Four days after such treatment, a number of rats are given 1 millimole/kg of the compound by intraperitoneal injection and a similar number are given placebo. The doses are repeated after a further 24 hours and 48 hours. Blood samples are taken from a tail vein immediately before each dosage (which is 2 hours after removal of the animals from food) and 1, 2 and 3 hours after the third dose.

[6] = 0.02 to 0.1 millimole/kg. intravenously

Compound: NC(C(=O)O)c1ccc(O)cc1 (racemic) [DL (racemic)-2-(4-hydroxyphenyl)glycine]
- effect on PDHa/PDHt ratio relative to the L(+)-isomer ([1]; same dose levels): only half, or less than half, the effect of the L(+)-isomer
- effect on pyruvate oxidation relative to the L(+)-isomer [2]: approximately half that of the L(+)-isomer

Compound: NC(C(=O)[O-])c1ccc(O)cc1.[Na+] (racemic) [DL-2-(4-hydroxyphenyl)glycine, sodium salt]
- effect on rate of glucose oxidation (predicted, 'will be') [3]: significantly increased

Compound: CC(C)CCOC(=O)[C@@H](N)c1ccc(O)cc1 [3-Methylbutyl L(+)-2-(4-hydroxyphenyl)glycinate]
- effects on myocardial pyruvate uptake, blood flow, oxygen consumption and FFA uptake (predicted, 'will be found') [4]: effects similar to L(+)-2-(4-hydroxyphenyl)glycine
- PDHa/PDHt Ratio, Compound ([1]; s.c. (subcutaneous)): 0.51
- activation at 500 µM ([2]; Rattus norvegicus): 32%

Compound: Br.COc1ccc([C@H](N)C(=O)OCCC(C)C)cc1 [3-methylbutyl L(+)-2-(4-methoxyphenyl)glycinate hydrobromide]
- effect on PDHa/PDHt ratio (predicted, 'will be') [1]: significantly increased

Compound: N[C@@H](C(=O)O)c1ccc(O)cc1 [D(-)-2-(4-hydroxyphenyl)glycine, reference compound]
- effect on PDHa/PDHt ratio ([1]; dose levels up to 1.2 millimole/kg.): very little effect
- effect on rate of glucose oxidation ([3]; 2 millimolar in perfusate): no significant effect
- effect on pyruvate oxidation ([2]; concentrations up to 4 mM): no significant effect

Compound: CC(C)OC(=O)[C@@H](N)c1ccc(O)cc1 [Isopropyl L(+)-2-(4-hydroxyphenyl)glycinate]
- activation at 500 µM ([2]; Rattus norvegicus): 34%

Compound: NC(=O)[C@@H](N)c1ccc(O)cc1 [L(+)-2-(4-hydroxyphenyl)glycinamide]
- effects on myocardial pyruvate uptake, blood flow, oxygen consumption and FFA uptake (predicted, 'will be found') [4]: effects similar to L(+)-2-(4-hydroxyphenyl)glycine
- PDHa/PDHt Ratio, Compound ([1]; p.o. (oral)): 0.91
- PDHa/PDHt Ratio, Compound ([1]; s.c. (subcutaneous)): 0.93
- effect on rate of glucose oxidation (predicted, 'will be') [3]: significantly increased
- activation at 500 µM ([2]; Rattus norvegicus): 51%

Compound: N[C@H](C(=O)O)c1ccc(O)cc1 [L(+)-2-(4-hydroxyphenyl)glycine]
- effect on hemodynamic parameters (blood pressure, left ventricular pressure and its first derivative) [4, 6]: no effect
- effect on myocardial FFA uptake [4, 6]: generally decreased
- increase of myocardial blood flow [4, 6]: up to 150%
- period of increased myocardial pyruvate uptake after dosing [4, 6]: at least 90 minutes
- decrease of myocardial oxygen consumption ([4]; 0.02 to 0.1 millimole/kg. intravenously, in the presence of isoprenaline): about 20%
- increase of myocardial pyruvate uptake ([4]; 0.02 to 0.1 millimole/kg. intravenously, presence and absence of isoprenaline): at least 2 fold
- PDHa/PDHt ratio ([1]; doses of 0.6 millimole/kg. and above, fat-fed untreated 0.05 to 0.2, normal diet about 0.7): 0.8-1.0
- threshold dose for increase of PDHa/PDHt ratio ([1]; intravenous injection): 0.05 millimole/kg.
- blood glucose level after 2 days of treatment (immediately before the third dose) ([5]; 1 millimole/kg intraperitoneal daily, declined from 378± 8, placebo 383± 10, averages for 8 animals): 356± 4 mg/100 ml.
- blood glucose level 2 hours after the third dose (minimum value) ([5]; 1 millimole/kg intraperitoneal, placebo 385± 7, averages for 8 animals): 313± 7 mg/100 ml.
- rate of glucose oxidation ([3]; 2 millimolar in perfusate, normal rate 1.27+ 0.32, mean of 9 observations): 4.77 µmol/h
- Emax ([2]; Rattus norvegicus, at concentrations of 4 millimolar and above, read-out: maximum stimulation of pyruvate oxidation): 170%
- minimal effective concentration ([2]; Rattus norvegicus, in vitro, read-out: threshold concentration for stimulation of pyruvate oxidation): ~250 µM

Compound: COc1ccc([C@H](N)C(N)=O)cc1 [L(+)-2-(4-methoxyphenyl)glycinamide]
- effect on PDHa/PDHt ratio (predicted, 'will be') [1]: significantly increased
- effect on pyruvate oxidation (predicted, 'will be found') [2]: stimulate pyruvate oxidation

Compound: COc1ccc([C@H](N)C(=O)O)cc1 [L(+)-2-(4-methoxyphenyl)glycine, calcium salt]
- effects on myocardial pyruvate uptake, blood flow, oxygen consumption and FFA uptake (predicted, 'will be found') [4]: effects similar to L(+)-2-(4-hydroxyphenyl)glycine

Compound: COc1ccc([C@H](N)C(=O)[O-])cc1.[K+] [L(+)-2-(4-methoxyphenyl)glycine, potassium salt]
- effect on PDHa/PDHt ratio (predicted, 'will be') [1]: significantly increased

Compound: COc1ccc([C@H](N)C(=O)O)cc1 [L(+)-2-(4-methoxyphenyl)glycine]
- effect on rate of glucose oxidation (predicted, 'will be') [3]: significantly increased
- activation at 500 µM ([2]; Rattus norvegicus): 79%

Compound: COC(=O)[C@@H](N)c1ccc(O)cc1 [Methyl L(+)-2-(4-hydroxyphenyl)glycinate]
- PDHa/PDHt Ratio, Compound ([1]; p.o. (oral)): 0.42
- PDHa/PDHt Ratio, Compound ([1]; s.c. (subcutaneous)): 0.69
- activation at 500 µM ([2]; Rattus norvegicus): 89%

Compound: CCOC(=O)[C@@H](N)c1ccc(OC)cc1 [ethyl L(+)-2-(4-methoxyphenyl)glycinate]
- effect on pyruvate oxidation (predicted, 'will be found') [2]: stimulate pyruvate oxidation

Compound: COC(=O)[C@@H](N)c1ccc(O)cc1.Cl [methyl L(+)-2-(4-hydroxyphenyl)glycinate hydrochloride]
- effects on myocardial pyruvate uptake, blood flow, oxygen consumption and FFA uptake (predicted, 'will be found') [4]: effects similar to L(+)-2-(4-hydroxyphenyl)glycine

Compound: COC(=O)[C@@H](N)c1ccc(OC)cc1 [methyl L(+)-2-(4-methoxyphenyl)glycinate gluconate]
- effect on PDHa/PDHt ratio (predicted, 'will be') [1]: significantly increased

Compound: CCCCOC(=O)[C@@H](N)c1ccc(OC)cc1 [n-butyl L(+)-2-(4-methoxyphenyl)glycinate]
- effect on pyruvate oxidation (predicted, 'will be found') [2]: stimulate pyruvate oxidation

Compound: CCCOC(=O)[C@@H](N)c1ccc(O)cc1.Cl [n-propyl L(+)-2-(4-hydroxyphenyl)glycinate hydrochloride]
- effect on rate of glucose oxidation (predicted, 'will be') [3]: significantly increased
